PMC5773577, “Novel Miniature Membrane Active Lipopeptidomimetics against Planktonic and Biofilm Embedded Methicillin-Resistant Staphylococcus aureus” (Scientific Reports, 2018)
≈ marks a conversion by molar mass, not a printed value.

How the values were obtained:
Format in all cases: cell-based, Staphylococcus aureus
[1] = test system: MRSA (ATCC 33591); test: microbe, parasite or virus in culture; details: Staphylococcus aureus, MHB, 2–5 × 10^5 CFU/mL, 16–18 h, 37 °C, OD600, read-out: Minimum inhibitory concentration, MIC
Protocol: (§1) The antibacterial activity was evaluated as MIC using slight modifications to a serial broth micro dilution method as reported previously[66],[67]. Briefly, to each treatment well of the 96-well plate (Corning Incorporated, USA) 10 μL of peptidomimetic/antibiotic was added and subsequently diluted serial 2-fold in 0.2% BSA (in 0.01% acetic acid). Then to each well of the first 11 columns 100 μL of mid-log phase bacterial suspension in MHB medium was added to get 2–5 × 10^5 CFU/mL. Cultures without test peptidomimetics/antibiotics were used as growth control. Uninoculated MHB medium was used as negative control. The microtitre plates were incubated overnight with agitation (180 rpm) at 37 °C. After 16–18 h incubation, absorbance was read at 600 nm using an ELISA plate reader (Molecular Devices, Sunnyvale, CA, USA). The experiments were carried out in duplicate on at least three different days.

[2] = test system: MRSA (ATCC 43300); test: microbe, parasite or virus in culture; details: Staphylococcus aureus, MHB, 2–5 × 10^5 CFU/mL, 16–18 h, 37 °C, OD600, read-out: Minimum inhibitory concentration, MIC
Protocol: as §1

[3] = test system: S. aureus (ISP479C); test: microbe, parasite or virus in culture; details: Staphylococcus aureus, MHB, 2–5 × 10^5 CFU/mL, 16–18 h, 37 °C, OD600, read-out: Minimum inhibitory concentration, MIC
Protocol: as §1

[4] = test system: S. aureus (ATCC 25923); test: microbe, parasite or virus in culture; details: Staphylococcus aureus, ATCC25923, MHB, 2–5 × 10^5 CFU/mL, 16–18 h, 37 °C, OD600, read-out: Minimum inhibitory concentration, MIC
Protocol: as §1

[5] = test system: S. aureus (ATCC 29213); test: microbe, parasite or virus in culture; details: Staphylococcus aureus, ATCC29213, MHB, 2–5 × 10^5 CFU/mL, 16–18 h, 37 °C, OD600, duplicate, at least three days, read-out: Minimum inhibitory concentration, MIC
Protocol: as §1

[6] = test system: exponential phase MRSA ATCC 33591; test: Bacterial killing kinetics, exponential phase cells in MHB medium; details: 24 h
Protocol: The kinetics of bacterial killing was determined against MRSA ATCC 33591 strain using drop plate method as described previously with slight modifications[51],[67],[70],[71]. The experiment was performed against exponential phase MRSA in normal medium and stationary phase MRSA in nutrient-depleted medium. For the preparation of nutrient-depleted medium, the primary MRSA ATCC 33591 culture in MHB medium was allowed to grow for 18 h at 37 °C and the cells were removed by centrifugation. The cell pellet was used for stationary phase culture and the spent medium supernatant was used as a nutrient-depleted medium. For obtaining exponential phase cells, MRSA was grown overnight in MHB and 100 μL suspension was used to inoculate 10 mL fresh MHB medium. The cells were incubated at 37 °C for 4–6 h to reach exponential phase.
For the experiments, both exponential and stationary phase cells were re-suspended separately in normal or nutrient-depleted mediums to OD600 = 0.5 (~10^8 CFU/mL). A 25 µL aliquot of this suspension was added to 475 μL of respective medium with or without test peptidomimetics/antibiotics in an eppendorf tube. […] The agar plates were incubated at 37 °C for 16–18 h and the colonies were counted (dilutions having colonies in the range of 10–100 were counted). […]

[7] = test system: MRSA ATCC 33591 biofilm; test: Biofilm formation inhibition, viable count assay; details: 24 h biofilm formation inhibition, 2.5 μg/mL
Protocol: For the experiment, a protocol as described previously was used with slight modifications. Briefly, desired concentrations of the test agents in PBS were added to the wells of a 96-well plate (100 μL). Thereafter, overnight grown stationary phase MRSA ATCC 33591 culture (~4 × 10^5 CFU/mL) in TSB medium (supplemented with 0.25% glucose and 0.5% NaCl) was added to the 96-well plates (100 μL). The plates were incubated at 37 °C without shaking for 24 h. After 24 h, the used medium was discarded and the biofilms formed were washed with PBS once. Subsequently, CV and AB assays were performed to quantify biomass and viability respectively, as described below:
The experiments were repeated on two different days and on each day 6 wells were used for a single treatment. Mean ± S.E. for both CV assay and AB assay is presented here. Corresponding to CV and AB assay the viability of cells upon treatment was also evaluated. Towards this 200 μL PBS was added to washed and treated wells of the 96-well plate and the contents were scraped thoroughly. The resulting bacterial suspension was sonicated briefly, diluted in PBS and plated on BHI agar plates. The agar plates were incubated at 37 °C for 16–24 h and CFUs were counted. Mean ± S.E. data from two independent experiments performed on two different days is shown here.

[8] = test system: MRSA ATCC 33591; test: Cell viability corresponding to calcein leakage experiment; details: calcein-loaded cells in PBS, 4 × MIC (melittin 10 μM), 2 h incubation
Protocol: To assess the effect of designed peptidomimetics on membrane integrity of MRSA ATCC 33591 strain a calcein-AM dye release experiment was performed using the protocol described previously with slight modifications[51]. Briefly, exponential phase MRSA ATCC 33591 culture was prepared in MHB medium as mentioned earlier and adjusted to OD600 = 1 (~10^9 CFU/mL) in PBS (10 mM sodium phosphate, 150 mM NaCl, pH 7.4). Thereafter, the cells were incubated at 37 °C with calcein-AM (2 μg/mL) in 10% MHB medium for 2 h. The calcein-loaded cells were washed once and re-suspended in PBS to OD600 = 0.5 (~10^8 CFU/mL). The cells were diluted 100× in PBS to get 3–5 × 10^5 CFU/mL and were incubated with different concentrations of test agents at 37 °C in dark for 2 h. Subsequently, calcein fluorescence was measured via flow cytometry (Becton Dickinson (BD) FACS verse, San Jose, CA) with excitation and emission wavelengths of 488 nm and 530 ± 30 nm, respectively. For each sample, 10,000 cells were acquired. As a positive control, melittin (10 μM) was assayed under identical conditions. The experiment was repeated on two different days and mean ± S.D. is presented here. […]
agar plates. The plates were incubated at 37 °C for 16-18 h and colonies were counted. […]

CN[C@H](CC(C)C)C(=O)N[C@H]1C(=O)N[C@@H](CC(N)=O)C(=O)N[C@H]2C(=O)N[C@H]3C(=O)N[C@H](C(=O)N[C@H](C(=O)O)c4cc(O)cc(O)c4-c4cc3ccc4O)[C@H](O)c3ccc(c(Cl)c3)Oc3cc2cc(c3O[C@@H]2O[C@H](CO)[C@@H](O)[C@H](O)[C@H]2O[C@H]2C[C@](C)(N)[C@H](O)[C@H](C)O2)Oc2ccc(cc2Cl)[C@H]1O [VAN, vancomycin]
MIC [1]: 1.4 µg/mL (≈ 0.966 µM)
MIC [2]: 0.7 µg/mL (≈ 0.483 µM)
MIC [3]: 0.3 µg/mL (≈ 0.207 µM)
MIC [4]: 1.4 µg/mL (≈ 0.966 µM)
MIC [5]: 0.7 µg/mL (≈ 0.483 µM)
log reduction in CFU/mL ([6]; 4 × MIC): ~ 2.3 log
log reduction in CFU/mL ([6]; 10 × MIC): ~ 2.3 log
log reduction in viability compared to 24 h growth control [7]: > 3 log
remaining viable count ([7]; mean ± S.E., two experiments, untreated 7.59 ± 0.08): 1.44 ± 1.44 log CFU/mL
log reduction in viability [8]: no reduction
